Structures are written as SMILES. Records with an inconclusive call do not appear. Active and inactive are the calls of the source.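 How the source made its calls: active means fitted EC50 at most tenfold above the highest tested dose; inconclusive means flat fit with 30 to 70% signal loss, or poor fit; inactive means the rest.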

The test concerns NIH-3T3 fibroblasts viability, Alamar Blue fluorescence, 48 h. The experiment in a line: mammalian cell viability loss with fluconazole – Alamar Blue fluorescence, cytotoxicity control for reversing antifungal drug resistance, dose response (AID 434923).
With `O=C(NNC1=C(C(=O)C(F)(F)F)CCC1)c1ccc(Cl)cc1`, the EC50 was > 26 µM (inactive).
As to `O=C(Nc1nnc(CCc2ccccc2)s1)c1ccco1`, the EC50 was > 26 µM (inactive).
As for `O=C(Nc1nnc(SCc2ccc(Cl)cc2)s1)c1ccc2ccccc2n1`, the EC50 is 12 µM.
Turning to `c1ccc2c(c1)OCC(CNc1ncnc3sccc13)O2` (stereo not given), the EC50 was > 12 µM (inactive).
In the case of `CCCC(=O)NC(c1ccc(Cl)cc1)c1ccc2cccnc2c1O` (stereo not given), the EC50 was 3.44 µM.
With `COc1cc2c(cc1NC(=O)c1ccco1)CCCC2`, the EC50 is > 26 µM (inactive).
Regarding `CCc1ccc2c(c1)/C(=C/C(=O)c1cccs1)C(=O)N2`, the EC50 is 14 µM.
Take `O=C(Nc1nnc(-c2ccc3c(c2)CCCC3)o1)c1ccc(Cl)cc1Cl`: the EC50 is > 26 µM (inactive).
With `CCOC(=O)N1C(=O)C2(CCCCC2)N(c2ccc(C)cc2)C1=S`, the EC50 was > 26 µM (inactive).
On to `Cc1ccc(Nc2nc(N)c([N+](=O)[O-])c(N3CCC(C)CC3)n2)cc1C`, for which the EC50 is > 26 µM (inactive).
Take `COc1ccc(-n2nc(C(=O)NCC(=O)N3CCN(c4ccccc4)CC3)c3ccccc3c2=O)c(OC)c1`: the EC50 was > 26 µM (inactive).
Regarding `O=C(Oc1c(Cl)cc(Cl)c2cccnc12)c1cccs1`, the EC50 was 21.8 µM.
`CC(C)COCc1ccc(O)c2ncccc12`: the EC50 was < 0.1 µM.
For `O=C1/C(=C\c2ccccc2)CCc2c1[nH]c1ccccc21` the value was > 26 µM (inactive); for `O=C(Nc1nc(-c2ccccn2)cs1)c1ccc(Br)s1`, > 26 µM (inactive); for `Clc1ccc2c(c1)C(c1cccs1)=NNC(c1cccnc1)=N2`, > 26 µM (inactive).
In the case of `Nc1nccnc1C(=O)Nc1nnc(SCc2ccc(Cl)cc2)s1`, the EC50 was > 26 µM (inactive).
With `O=C(Nc1nnc(-c2ccco2)o1)c1ccc(Cl)cc1`, the EC50 was > 26 µM (inactive).
Turning to `COc1ccc(-c2nnc(NC(=O)c3ccc(F)cc3)o2)cc1`, the EC50 was > 26 µM (inactive).
`CC(C)N1CCc2c(sc(NC(=O)c3nc4ccccc4s3)c2C(N)=O)C1`: the EC50 was > 26 µM (inactive).
For `CCCC(=O)NC(c1ccccc1)c1ccc2cccnc2c1O` (stereo not given) the value was > 26 µM (inactive).
For `Cc1nc2ccccc2cc1OCc1ccc(F)cc1` the value was > 26 µM (inactive); for `O=C(Nc1sc2c(c1C(=O)c1ccc(Cl)cc1)CCCC2)c1cccnc1`, > 26 µM (inactive).
`CCOC(=O)c1c(-c2ccccc2Cl)cn2ccccc12`: the EC50 is > 26 µM (inactive).
For the compound `Cc1ccc(/C=C/C(=O)c2ccccc(=O)c2O)cc1C`, the EC50 was > 26 µM (inactive).

The values are drawn from PubChem BioAssay AID434923 (Broad Institute, 2010).
